Experimental data from patent US20240383913A1, “THIOPHENE RING COMPOUND, PREPARATION METHOD THEREFOR AND APPLICATION THEREOF” (CENTER FOR EXCELLENCE IN MOLECULAR CELL SCIENCE, CHINESE …, priority 2021, published 2024).

Legend:
dopamine D2 receptors [1] = molecular target: T1, dopamine D2 receptors (Homo sapiens (Human), UniProt P14416); assay: Affinity for dopamine D2 receptors, radioligand competition with [3H]-Methylspiperone; format: binding; conditions: 293T membrane transiently expressing D2
T1 sequence (P14416 whole entry): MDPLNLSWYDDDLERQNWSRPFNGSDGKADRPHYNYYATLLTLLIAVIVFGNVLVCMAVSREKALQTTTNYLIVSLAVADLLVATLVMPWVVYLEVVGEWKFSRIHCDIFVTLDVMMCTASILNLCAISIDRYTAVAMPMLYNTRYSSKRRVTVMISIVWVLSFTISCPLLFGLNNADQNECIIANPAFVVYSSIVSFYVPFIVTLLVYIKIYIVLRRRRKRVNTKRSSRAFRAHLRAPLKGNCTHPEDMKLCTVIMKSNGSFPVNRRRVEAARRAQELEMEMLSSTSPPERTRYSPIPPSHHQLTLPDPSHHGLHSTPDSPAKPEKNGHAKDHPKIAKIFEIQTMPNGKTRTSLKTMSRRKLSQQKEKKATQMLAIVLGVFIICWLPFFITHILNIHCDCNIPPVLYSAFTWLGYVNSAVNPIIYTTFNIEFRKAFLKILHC
Experimental: The affinity of the compounds of the present disclosure for the dopamine D2 receptors was determined by the method of radioligand competition experiment. In the first step, a cell membrane component containing specific dopamine D2 receptors was prepared. A 10 cm culture dish was used for transfection with 10 ng of the dopamine D2 receptors and 40 μL of polyethylenimine (PEI hereafter). After 48 hours, the 10 cm culture dish was taken out from the cell culture incubator and the cultured cells had expressed the dopamine D2 receptors. A vacuum pump was used to suck off the culture medium, 3 mL of lysis buffer was added to each culture dish, and the cells were placed in a 4° C. cold room for 10 minutes. After the cells were detached, the cells were transferred to a 15 mL centrifuge tube and centrifuged at 1500 rpm for 5 minutes at 4° C., and the supernatant was discarded. The cell pellet was transferred to a tissue homogenizer, and 3 mL of lysis buffer was added and fully ground until the cells were broken. Then, cell suspension was equally aliquoted into several EP tubes, centrifuged at 12000 rpm for 5 minutes at 4° C., and the supernatant was discarded. The precipitate was the cell membrane component containing the dopamine D2 receptors. […] First, a standard binding buffer was added to the cell membrane component containing the dopamine D2 receptors, and the cell membrane was disrupted and resuspended with an electric tissue homogenizer. 30 μL of membrane protein suspension was added to each well of a 96-well plate. Then, 30 μL of different drugs were added to the 96-well plate sequentially from bottom to top to ensure that the final drug concentrations were 10^−5 M, 10^−6 M, 10^−7 M, 10^−8 M, 10^−9 M, and 0 M, with two replicates per treatment. Next, 30 μL of [3H]-Methylspiperone was added to each well of the 96-well plate. The plate was incubated for 2 hours at room temperature in the dark. Detection was conducted. The machine readout value reflected the amount of [3H]-Methylspiperone bound on the membrane, and after further data processing, the affinity Ki values of different compounds for the dopamine D2 receptors were obtained.

dopamine D2 receptors [2] = molecular target: T1, dopamine D2 receptors; assay: Dopamine D2 receptor Gαi1 BRET (G protein trimer dissociation); format: cell-based; conditions: D2 receptor, G protein pathway;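 also: transfected cells co-expressing D2 receptor, Gαi1-Rluc, Gβ3 and Gγ9-GFP, BRET with coelenterazine 400a at 5 µM read as G protein trimer dissociation, graded drug concentrations in duplicate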
Experimental: To examine the downstream G protein signaling pathway mediated by dopamine D2 receptors, on the first day, a 6 cm culture dish was used for transfection with 1 μg of dopamine D2 receptors, 1 μg of Gαi1 containing a C-terminal seaweed luciferase (Gαi1-Rluc), 1 μg of Gβ3, 1 μg of Gγ9 containing C-terminal green fluorescent protein (Gγ9-GFP), and 16 μL of PEI. At the same time, in order to examine the downstream β-arrestin2 signaling pathway mediated by dopamine D2 receptors, on the first day, a 6 cm culture dish was used for transfection with 500 μg of dopamine D2 receptors containing C-terminal seaweed luciferase (D2-Rluc), 500 μg of G protein-coupled receptor kinase 2 (GRK2), 2500 μg of β-arrestin2 containing N-terminal green fluorescent protein (GFP2-ARRB2) mixed with 14 μL of PEI. The next day, the confluent cells of a 6 cm culture dish were digested and reseeded into a 96-well plate with 100 μL of culture medium added to each well. On the third day, the drugs were added for test. The 96-well plate was taken out from the cell incubator to decant the culture medium, 40 μL of the substrate coelenterazine 400a (final concentration of 5 μM) was added to each well, and then 20 μL of different drugs were added sequentially from left to right to ensure that the final concentration of the drug decreased gradually from bottom to top, with two replicates per treatment. Finally, the prepared samples were loaded on machine for test. The machine readout value reflected the recruitment of β-arrestin2 to the membrane or the dissociation of G protein trimer. The former indicated the degree of activation of the β-arrestin2 signaling pathway downstream of the dopamine D2 receptors, and the latter indicated the degree of activation of the G protein signaling pathway downstream of the dopamine D2 receptors.

5-HT2A receptor = 5-HT2A receptor (Homo sapiens (Human), UniProt P28223); assay: Affinity for 5-HT2A receptors, radioligand competition with [3H]-ketanserin; format: binding; conditions: 293T membrane transiently expressing 5-HT2A
5-HT2A receptor, sequence (P28223 whole entry): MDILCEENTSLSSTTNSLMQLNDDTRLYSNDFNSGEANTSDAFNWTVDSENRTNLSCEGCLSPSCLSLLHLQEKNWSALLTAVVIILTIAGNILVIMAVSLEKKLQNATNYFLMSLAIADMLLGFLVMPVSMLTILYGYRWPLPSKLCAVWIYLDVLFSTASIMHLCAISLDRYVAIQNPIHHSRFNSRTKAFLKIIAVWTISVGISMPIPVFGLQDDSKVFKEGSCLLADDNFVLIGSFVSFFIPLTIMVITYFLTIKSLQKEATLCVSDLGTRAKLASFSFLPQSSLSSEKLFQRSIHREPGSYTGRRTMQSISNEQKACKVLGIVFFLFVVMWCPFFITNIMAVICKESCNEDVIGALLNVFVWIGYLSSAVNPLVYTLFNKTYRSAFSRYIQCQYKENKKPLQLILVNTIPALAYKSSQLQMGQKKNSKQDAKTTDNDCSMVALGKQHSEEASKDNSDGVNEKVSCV
Experimental: The affinity of the compounds of the present disclosure for the 5-HT2A receptors was determined by the method of radioligand competition experiment. In the first step, a cell membrane component containing specific 5-HT2A receptor was prepared. A 10 cm dish was used for transfection with 10 ng of the 5-HT2A receptor and 40 μL of PEI. After 48 hours, the 10 cm dish was taken out from the cell incubator and the cultured cells had expressed the 5-HT2A receptor. A vacuum pump was used to suck off the culture medium, 3 mL of lysis buffer was added to each culture dish, and the cells were placed in a 4° C. cold room for 10 minutes. After the cells were detached, the cells were transferred to a 15 mL centrifuge tube and centrifuged at 1500 rpm for 5 minutes at 4° C., and the supernatant was discarded. The cell pellet was transferred to a tissue homogenizer, and 3 mL of lysis buffer was added and fully ground until the cells were broken. Then, cell suspension was equally aliquoted into several EP tubes, centrifuged at 12000 rpm for 5 minutes at 4° C., and the supernatant was discarded. The precipitate was the cell membrane component containing the 5-HT2A receptor. […] First, a standard binding buffer was added to the cell membrane component containing the 5-HT2A receptor, and the cell membrane was disrupted and resuspended with an electric tissue homogenizer. 30 μL of membrane protein suspension was added to each well of a 96-well plate. Then, 30 μL of different drugs were added to the 96-well plate sequentially from bottom to top to ensure that the final drug concentrations were 10^−5 M, 10^−6 M, 10^−7 M, 10^−8 M, 10^−9 M, and 0 M, with two replicates per treatment. Next, 30 μL of [3H]-ketanserin was added to each well of the 96-well plate. The plate was incubated for 2 hours at room temperature in the dark. Detection was conducted. The machine readout value reflected the amount of [3H]-ketanserin bound on the membrane, and after further data processing, the affinity Ki values of different compounds for the 5-HT2A receptor were obtained.

5-HT1A receptor = 5-HT1A receptor (Homo sapiens (Human), UniProt P08908); assay: Affinity for 5-HT1A receptors, radioligand competition with [3H]-LSD; format: binding; conditions: 293T membrane transiently expressing 5-HT1A; [3H]-LSD; read-out: 5-HT1A affinity Ki;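 also: membranes from cells transiently transfected with 5-HT1A receptor, bound [3H]-LSD displaced by compound at 10^-9 to 10^-5 M, 2 h incubation at room temperature in the dark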
5-HT1A receptor, sequence (P08908 whole entry): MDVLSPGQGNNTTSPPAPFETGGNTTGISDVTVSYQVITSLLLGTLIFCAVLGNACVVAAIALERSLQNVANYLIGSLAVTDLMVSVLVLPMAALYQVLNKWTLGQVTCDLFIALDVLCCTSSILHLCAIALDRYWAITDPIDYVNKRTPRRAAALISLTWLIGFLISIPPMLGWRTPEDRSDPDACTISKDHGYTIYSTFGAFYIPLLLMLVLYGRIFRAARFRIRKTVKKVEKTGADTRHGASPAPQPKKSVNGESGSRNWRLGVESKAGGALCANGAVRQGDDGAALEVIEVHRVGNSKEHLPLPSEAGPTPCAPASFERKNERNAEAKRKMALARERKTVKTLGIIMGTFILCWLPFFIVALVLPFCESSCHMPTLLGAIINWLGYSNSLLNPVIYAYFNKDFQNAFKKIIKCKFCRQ
Experimental: The affinity of the compounds of the present disclosure for the 5-HTIA receptors was determined by the method of radioligand competition experiment. In the first step, a cell membrane component containing specific 5-HTIA receptor was prepared. A 10 cm culture dish was used for transfection with 10 ng of the 5-HTIA receptor and 40 μL of PEI. After 48 hours, the 10 cm culture dish was taken out from the cell incubator and the cultured cells had expressed the 5-HTIA receptor. A vacuum pump was used to suck off the culture medium, 3 mL of lysis buffer was added to each culture dish, and the cells were placed in a 4° C. cold room for 10 minutes. After the cells were detached, the cells were transferred to a 15 mL centrifuge tube and centrifuged at 1500 rpm for 5 minutes at 4° C., and the supernatant was discarded. The cell pellet was transferred to a tissue homogenizer, and 3 mL of lysis buffer was added and fully ground until the cells were broken. Then, cell suspension was equally aliquoted into several EP tubes, centrifuged at 12000 rpm for 5 minutes at 4° C., and the supernatant was discarded. The precipitate was the cell membrane component containing the 5-HT1A receptor. […] First, a standard binding buffer was added to the cell membrane component containing the 5-HT1A receptor, and the cell membrane was disrupted and resuspended with an electric tissue homogenizer. 30 μL of membrane protein suspension was added to each well of a 96-well plate. Then, 30 μL of different drugs were added to the 96-well plate sequentially from bottom to top to ensure that the final drug concentrations were 10^−5 M, 10^−6 M, 10^−7 M, 10^−8 M, 10^−9 M, and 0 M, with two replicates per treatment. Next, 30 μL of [3H]-LSD was added to each well of the 96-well plate. The plate was incubated for 2 hours at room temperature in the dark. Detection was conducted. The machine readout value reflected the amount of [3H]-LSD bound on the membrane, and after further data processing, the affinity Ki values of different compounds for the 5-HTIA receptor were obtained. To examine the downstream G protein signaling pathway mediated by 5-HTIA receptors, on the first day, a 6 cm culture dish was used for transfection with 1 μg of 5-HTIA receptors, 1 μg of Gαi1 containing C-terminal seaweed luciferase (Gαi1-Rluc), 1 μg of Gβ3, 1 μg of Gγ9 containing C-terminal green fluorescent protein (Gγ9-GFP), and 16 μL of PEI. The next day, the confluent cells of a 6 cm culture dish were digested and reseeded into a 96-well plate with 100 μL of culture medium was added to each well. On the third day, the drugs were added for test. The 96-well plate was taken out from the cell incubator to decant the culture medium, 40 μL of the substrate coelenterazine 400a (final concentration of 5 μM) was added to each well, and then 20 μL of different drugs were added sequentially from left to right to ensure that the final concentration of the drug decreased gradually from bottom to top, with two replicates per treatment. Finally, the prepared samples were loaded on machine for test. The machine readout value reflected the dissociation of G protein trimer, and thereby indicated the degree of activation of the G protein signaling pathway downstream of the 5-HTIA receptors.

[3] = system: hyperlocomotion of the mice induced by MK801; assay: Open field test, hyperlocomotion induced by MK801; format: in vivo, C57B6 male mice; conditions: for Distance (cm) travelled in 45 minutes: 0-45 minute interval after MK-801; for Distance travelled (cm): 5-minute bin
Experimental: Experimental method: The experimental animals were C57B6 male mice, n=8 in each group. This model used C57B6 mice as experimental animals. Hyperlocomotion of the mice in open field was induced by acute injection of a NMDA antagonist MK801. and modeled to test the inhibitory effect of different compounds on hyperkinesia phenotype induced by MK801. All mouse behavior experiments were carried out during the light period, and the whole process was recorded by the camera and locomotive data were tracked and analyzed by behavioral tracking software. The compounds were administered intraperitoneally. Immediately after the injection, the mice entered the open field and their movement trajectories were recorded by the camera. After 30 minutes, the mice received 0.2 mg/kg of MK801 by intraperitoneal injection and returned to the open field immediately after administration and the movement trajectories were further recorded for 120 minutes. The accumulative travelled distance of the mice was counted in a 5-minute bin. Data statistics were performed using Student-t-test analysis, *p<0.05, ** p<0.01, *** p<0.001, **** p<0.0001.

## CN(C)C(=O)N[C@H]1CC[C@H](CCN2CCN3c4cccc5scc(c45)CC3C2)CC1 (single isomer, unassigned; (-)) [(−)-I-27]
Dopamine D2 receptors [1]
  Ki: 120 nM
Dopamine D2 receptors [2]
  Gαi1 BRET (Emax %): (72.04%)
Dopamine D2 receptors [2]; read-out: Gαi1 BRET EC50
  EC50: 3.76 nM
5-HT2A receptor
  Ki: 2290 nM
5-HT1A receptor
  Ki: 80 nM
[3]; 0.4/0.2/0.1 mg/kg intraperitoneally, MK801 0.2 mg/kg
  Inhibition of MK801-induced hyperlocomotion: significantly inhibit hyperlocomotion
[3]; (−)-I-27 0.1 mg/kg i.p. + MK801 0.2 mg/kg
  Distance (cm) travelled in 45 minutes: 6882.3 cm
[3]; (−)-I-27 0.1 mg/kg i.p. + MK801 0.2 mg/kg, 5 minutes after MK801
  Distance travelled (cm): 420.96 ± 66.32 cm
[3]; (−)-I-27 0.1 mg/kg i.p. + MK801 0.2 mg/kg, 10 minutes after MK801
  Distance travelled (cm): 405.21 ± 55.18 cm
[3]; (−)-I-27 0.1 mg/kg i.p. + MK801 0.2 mg/kg, 15 minutes after MK801
  Distance travelled (cm): 482.21 ± 74.21 cm
[3]; (−)-I-27 0.1 mg/kg i.p. + MK801 0.2 mg/kg, 20 minutes after MK801
  Distance travelled (cm): 708.05 ± 61.74 cm
[3]; (−)-I-27 0.1 mg/kg i.p. + MK801 0.2 mg/kg, 25 minutes after MK801
  Distance travelled (cm): 895.54 ± 92.18 cm
[3]; (−)-I-27 0.1 mg/kg i.p. + MK801 0.2 mg/kg, 30 minutes after MK801
  Distance travelled (cm): 1035.67 ± 122.77 cm
[3]; (−)-I-27 0.1 mg/kg i.p. + MK801 0.2 mg/kg, 35 minutes after MK801
  Distance travelled (cm): 1075.2 ± 123.55 cm
[3]; (−)-I-27 0.1 mg/kg i.p. + MK801 0.2 mg/kg, 45 minutes after MK801
  Distance travelled (cm): 942.97 ± 82.87 cm
[3]; (−)-I-27 0.1 mg/kg i.p. + MK801 0.2 mg/kg, 50 minutes after MK801
  Distance travelled (cm): 985.86 ± 96.6 cm
[3]; (−)-I-27 0.1 mg/kg i.p. + MK801 0.2 mg/kg, 55 minutes after MK801
  Distance travelled (cm): 925.44 ± 118.24 cm
[3]; (−)-I-27 0.1 mg/kg i.p. + MK801 0.2 mg/kg, 60 minutes after MK801
  Distance travelled (cm): 937.96 ± 121.52 cm
[3]; (−)-I-27 0.1 mg/kg i.p. + MK801 0.2 mg/kg, 65 minutes after MK801
  Distance travelled (cm): 931.08 ± 108.91 cm
[3]; (−)-I-27 0.1 mg/kg i.p. + MK801 0.2 mg/kg, 70 minutes after MK801
  Distance travelled (cm): 839.2 ± 104.29 cm
[3]; (−)-I-27 0.1 mg/kg i.p. + MK801 0.2 mg/kg, 75 minutes after MK801
  Distance travelled (cm): 773.65 ± 117.99 cm
[3]; (−)-I-27 0.1 mg/kg i.p. + MK801 0.2 mg/kg, 80 minutes after MK801
  Distance travelled (cm): 691.57 ± 121.79 cm
[3]; (−)-I-27 0.1 mg/kg i.p. + MK801 0.2 mg/kg, 85 minutes after MK801
  Distance travelled (cm): 682.97 ± 115.06 cm
[3]; (−)-I-27 0.1 mg/kg i.p. + MK801 0.2 mg/kg, 90 minutes after MK801
  Distance travelled (cm): 611.63 ± 112.71 cm
[3]; (−)-I-27 0.1 mg/kg i.p. + MK801 0.2 mg/kg, 95 minutes after MK801
  Distance travelled (cm): 432.95 ± 85.66 cm
[3]; (−)-I-27 0.1 mg/kg i.p. + MK801 0.2 mg/kg, 100 minutes after MK801
  Distance travelled (cm): 405.27 ± 69.97 cm
[3]; (−)-I-27 0.1 mg/kg i.p. + MK801 0.2 mg/kg, 105 minutes after MK801
  Distance travelled (cm): 391.87 ± 78.94 cm
[3]; (−)-I-27 0.1 mg/kg i.p. + MK801 0.2 mg/kg, 110 minutes after MK801
  Distance travelled (cm): 351.08 ± 112.22 cm
[3]; (−)-I-27 0.1 mg/kg i.p. + MK801 0.2 mg/kg, 115 minutes after MK801
  Distance travelled (cm): 310.3 ± 83.61 cm
[3]; (−)-I-27 0.1 mg/kg i.p. + MK801 0.2 mg/kg, 120 minutes after MK801
  Distance travelled (cm): 339.28 ± 95.35 cm
[3]; (−)-I-27 0.1 mg/kg i.p., 0 minutes, before MK801
  Distance travelled (cm): 446.62 ± 49.69 cm
[3]; (−)-I-27 0.1 mg/kg i.p., −5 minutes, before MK801
  Distance travelled (cm): 473.13 ± 38.54 cm
[3]; (−)-I-27 0.1 mg/kg i.p., −10 minutes, before MK801
  Distance travelled (cm): 479.62 ± 34 cm
[3]; (−)-I-27 0.1 mg/kg i.p., −15 minutes, before MK801
  Distance travelled (cm): 522.39 ± 41.17 cm
[3]; (−)-I-27 0.1 mg/kg i.p., −20 minutes, before MK801
  Distance travelled (cm): 606.78 ± 43.01 cm
[3]; (−)-I-27 0.1 mg/kg i.p., −25 minutes, before MK801
  Distance travelled (cm): 827.15 ± 76.34 cm
[3]; (−)-I-27 0.2 mg/kg i.p. + MK801 0.2 mg/kg
  Distance (cm) travelled in 45 minutes: 5849.12 cm
[3]; (−)-I-27 0.2 mg/kg i.p. + MK801 0.2 mg/kg, 5 minutes after MK801
  Distance travelled (cm): 527.23 ± 55.9 cm
[3]; (−)-I-27 0.2 mg/kg i.p. + MK801 0.2 mg/kg, 10 minutes after MK801
  Distance travelled (cm): 353.73 ± 61.92 cm
[3]; (−)-I-27 0.2 mg/kg i.p. + MK801 0.2 mg/kg, 15 minutes after MK801
  Distance travelled (cm): 415.6 ± 122.18 cm
[3]; (−)-I-27 0.2 mg/kg i.p. + MK801 0.2 mg/kg, 20 minutes after MK801
  Distance travelled (cm): 555.77 ± 141.94 cm
[3]; (−)-I-27 0.2 mg/kg i.p. + MK801 0.2 mg/kg, 25 minutes after MK801
  Distance travelled (cm): 775.2 ± 174.1 cm
[3]; (−)-I-27 0.2 mg/kg i.p. + MK801 0.2 mg/kg, 30 minutes after MK801
  Distance travelled (cm): 815.56 ± 168.41 cm
[3]; (−)-I-27 0.2 mg/kg i.p. + MK801 0.2 mg/kg, 35 minutes after MK801
  Distance travelled (cm): 844.11 ± 141.81 cm
[3]; (−)-I-27 0.2 mg/kg i.p. + MK801 0.2 mg/kg, 40 minutes after MK801
  Distance travelled (cm): 771.62 ± 111.37| cm
[3]; (−)-I-27 0.2 mg/kg i.p. + MK801 0.2 mg/kg, 45 minutes after MK801
  Distance travelled (cm): 790.3 ± 145.96 cm
[3]; (−)-I-27 0.2 mg/kg i.p. + MK801 0.2 mg/kg, 50 minutes after MK801
  Distance travelled (cm): 741.75 ± 130.61 cm
[3]; (−)-I-27 0.2 mg/kg i.p. + MK801 0.2 mg/kg, 55 minutes after MK801
  Distance travelled (cm): 547.84 ± 71.53 cm
[3]; (−)-I-27 0.2 mg/kg i.p. + MK801 0.2 mg/kg, 60 minutes after MK801
  Distance travelled (cm): 707.09 ± 102.86 cm
[3]; (−)-I-27 0.2 mg/kg i.p. + MK801 0.2 mg/kg, 65 minutes after MK801
  Distance travelled (cm): 653.46 ± 142.7 cm
